In patent publication US20100056441A1, “Method for Inhibiting Angiogenesis” (priority 2006, published 2010):
Non-standard residues stand in square brackets, D forms with d. Residues, ends and D or L forms follow the SMILES beside them.

Tests used:
[1] = tested on: HCC cells of ARF -/- Rosa 26 FoxM1b TG mice; assay: Apoptosis of HCC in ARF -/- Rosa26 FoxM1b TG mice (H&E, TUNEL); type: in vivo, mouse
Experimental: In order to determine the effective concentration of dose of the ARF peptide for efficient liver delivery, mice were subjected to IP injection of either 0.1, 1, 5 or 10 mg/Kg body weight of TMR fluorescently tagged WT ARF 26-44 peptide, and were sacrificed 24 hours later, after which their livers were dissected, formalin fixed and paraffin embedded. Liver sections were treated with Xylene to remove paraffin wax and then examined by fluorescent microscopy for red peptide fluorescence. This dose response curve determined that IP injection of either equal or greater than 5 mg/Kg body weight of TMR-fluorescently labeled WT ARF 26-44 peptide was detectable in cytoplasm and nucleolus of hepatocytes and in hepatic mesenchymal cells at 24 hours after injection (FIG. 4G). […]
To measure apoptosis in mouse livers we used the Terminal Deoxynucleotidyl Transferase-mediated dUTP-biotin Nick End Labeling (TUNEL) assay on liver sections using the ApoTag Fluorescein in situ apoptosis detection kit from Intergen (Purchase, N.Y.) according to the manufacturer's recommendations. The mean number (±SD) of TUNEL- or DAPI-positive hepatocyte nuclei was calculated per 1000 cells or 200× field by counting the number of positive hepatocyte nuclei using five different 200× fields of liver tumor sections from male mice at the indicated times of DEN/PB exposure. […]

[2] = tested on: mouse HCC cells; assay: Apoptosis in mouse liver tumors (H&E, TUNEL, activated caspase 3); type: in vivo; conditions: treated tumor-bearing mice
Text: Furthermore, these apoptotic tumor cells were not apparent in FoxM1 deficient livers in dsRNA (CKO) Mx-Cre Foxm1−/− mice (FIG. 3E-3G).
To measure apoptosis in mouse livers we used the Terminal Deoxynucleotidyl Transferase-mediated dUTP-biotin Nick End Labeling (TUNEL) assay on liver sections using the ApoTag Fluorescein in situ apoptosis detection kit from Intergen (Purchase, N.Y.) according to the manufacturer's recommendations. The mean number (±SD) of TUNEL- or DAPI-positive hepatocyte nuclei was calculated per 1000 cells or 200× field by counting the number of positive hepatocyte nuclei using five different 200× fields of liver tumor sections from male mice at the indicated times of DEN/PB exposure.

[3] = molecular target: T1, FoxM1b (Homo sapiens, UniProt Q08050); conditions: cited from earlier work
T1 sequence (Q08050 1-748 isoform Q08050-2): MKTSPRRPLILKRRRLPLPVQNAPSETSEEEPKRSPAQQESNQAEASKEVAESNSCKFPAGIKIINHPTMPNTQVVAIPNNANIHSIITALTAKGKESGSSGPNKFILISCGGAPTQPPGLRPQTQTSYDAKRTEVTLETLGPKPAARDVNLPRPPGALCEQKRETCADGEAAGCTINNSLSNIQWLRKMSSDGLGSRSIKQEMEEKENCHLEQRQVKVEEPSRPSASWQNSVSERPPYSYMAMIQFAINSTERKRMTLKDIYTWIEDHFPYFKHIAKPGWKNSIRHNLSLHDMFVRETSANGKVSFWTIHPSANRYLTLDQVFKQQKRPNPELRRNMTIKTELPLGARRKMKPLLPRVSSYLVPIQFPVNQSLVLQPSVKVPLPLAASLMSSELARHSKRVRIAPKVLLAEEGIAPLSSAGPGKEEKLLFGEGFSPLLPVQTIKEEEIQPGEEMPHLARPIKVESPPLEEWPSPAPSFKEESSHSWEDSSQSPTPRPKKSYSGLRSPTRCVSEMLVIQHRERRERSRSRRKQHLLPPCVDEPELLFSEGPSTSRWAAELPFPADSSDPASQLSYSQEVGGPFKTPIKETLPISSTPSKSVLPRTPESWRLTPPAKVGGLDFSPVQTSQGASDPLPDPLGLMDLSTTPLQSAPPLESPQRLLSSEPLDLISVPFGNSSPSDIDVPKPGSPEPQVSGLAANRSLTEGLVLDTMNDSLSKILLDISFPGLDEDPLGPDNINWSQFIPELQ

Row | Molecule | TUNEL-positive cells in adjacent normal liver tissue [1] | activated caspase 3 staining in adjacent normal liver tissue [2] | red staining cells in surrounding normal liver tissue (H&E) [2] | inhibition of FoxM1B activity [3]
1 | CC(C)C[C@H](NC(=O)[C@H](C)NC(=O)[C@H](CS)NC(=O)[C@H](CO)NC(=O)[C@H](C)NC(=O)[C@@H](NC(=O)[C@H](CCCNC(=N)N)NC(=O)[C@@H]1CCCN1C(=O)[C@H](CCCNC(=N)N)NC(=O)[C@H](CCCNC(=N)N)NC(=O)[C@H](CO)NC(=O)[C@H](CCCNC(=N)N)NC(=O)[C@@H](NC(=O)[C@H](Cc1ccccc1)NC(=O)[C@H](CCCCN)NC(=O)[C@@H](CCCNC(=N)N)NC(=O)[C@@H](CCCNC(=N)N)NC(=O)[C@@H](CCCNC(=N)N)NC(=O)[C@@H](CCCNC(=N)N)NC(=O)[C@@H](CCCNC(=N)N)NC(=O)[C@@H](CCCNC(=N)N)NC(=O)[C@@H](CCCNC(=N)N)NC(=O)[C@@H](CCCNC(=N)N)NC(=O)[C@H](N)CCCNC(=N)N)C(C)C)[C@@H](C)O)C(=O)N[C@@H](C)C(=O)N[C@@H](Cc1ccccc1)C(=O)N[C@H](C(=O)N[C@@H](CC(N)=O)C(=O)O)C(C)C [WT ARF 26-44 peptide, rrrrrrrrrKFVRSRRPRTASCALAFVN] (H-[dR][dR][dR][dR][dR][dR][dR][dR][dR]KFVRSRRPRTASCALAFVN-OH; N-terminus and C-terminus assumed) | not detected in adjacent normal liver tissue | no pro-apoptotic staining in the adjacent normal liver tissue | neither in the surrounding normal liver tissue | –
2 | KFVRSRRPRTASCALAFVN (listed as Homo sapiens) [p19ARF26-44 peptide, amino acids 26-44 of the p19ARF tumor suppressor protein] | – | – | – | sufficient in inhibiting FoxM1B activity
